What was measured:
[1] = target: T1, human DP1 receptor (Homo sapiens, UniProt Q13258); assay: DP1 radioligand membrane binding assay ([3H]BWA868C); settings: human platelet membranes, 2 nM [3H]BWA868C; read-out: hDP1
T1 construct: tissue Biological Specialty Corporation; host or cells: human platelets, membrane preparation
T1 sequence (Q13258 1-359): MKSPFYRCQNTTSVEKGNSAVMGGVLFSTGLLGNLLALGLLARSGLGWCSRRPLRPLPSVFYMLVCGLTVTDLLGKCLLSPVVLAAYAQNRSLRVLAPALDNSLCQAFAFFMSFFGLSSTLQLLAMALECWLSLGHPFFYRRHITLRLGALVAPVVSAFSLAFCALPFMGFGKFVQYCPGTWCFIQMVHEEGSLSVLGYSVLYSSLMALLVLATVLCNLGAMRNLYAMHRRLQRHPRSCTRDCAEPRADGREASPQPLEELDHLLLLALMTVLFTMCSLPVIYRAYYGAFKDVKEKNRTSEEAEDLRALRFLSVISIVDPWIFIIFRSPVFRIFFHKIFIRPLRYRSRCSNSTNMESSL
Protocol: The ability of a compound to bind to the human DP1 receptor was evaluated via a radioligand membrane binding assay using the DP1 selective synthetic ligand [^3H]BWA868C. Packed human platelets (Biological Specialty Corporation), were resuspended in 6 volumes of Hepes/HBSS buffer (10 mM Hepes, 1 mM DTT in Hanks Balanced Salt Solution (HBSS), lysed and centrifuged at 75,000×g to pellet the membranes. Membranes were resuspended in Hepes/HBSS buffer to approximately 12 mg protein/ml. Membranes (20 μg protein/well) are incubated in 96-well plates with 2 nM [^3H]BWA868C and test compound in Assay Buffer (50 mM Hepes, 10 mM MnCl2, 1 mM EDTA, plus or minus 0.2% human serum albumin, pH 7.4) for 60 minutes at room temperature. The reactions are terminated by rapid filtration through Whatman GF/C glass fibre filter plates. The filter plates were pre-soaked in 0.33% polyethylenimine for 30 minutes at room temperature then washed in Wash Buffer (50 mM Hepes, 0.5 M NaCl pH 7.4) prior to harvesting. After harvesting, the filter plates are washed 3 times with 1 ml cold Wash Buffer then dried. Scintillant is then added to the plates and the radioactivity retained on the filters is determined on a Packard TopCount (Perkin Elmer). Specific binding is determined as total radioactive binding minus non-specific binding in the presence of 10 μM BW A868C. IC50s were determined using GraphPad prism analysis of drug titration curves.

[2] = target: T2, human DP2 receptor (Homo sapiens, UniProt Q9Y5Y4); assay: DP2/CRTH2 radioligand binding assay ([3H]PGD2); settings: membranes of HEK293 cells expressing recombinant human DP2, 1 nM [3H]PGD2; read-out: hDP2
T2 construct: expressed in transfected cells
T2 sequence (Q9Y5Y4 1-395): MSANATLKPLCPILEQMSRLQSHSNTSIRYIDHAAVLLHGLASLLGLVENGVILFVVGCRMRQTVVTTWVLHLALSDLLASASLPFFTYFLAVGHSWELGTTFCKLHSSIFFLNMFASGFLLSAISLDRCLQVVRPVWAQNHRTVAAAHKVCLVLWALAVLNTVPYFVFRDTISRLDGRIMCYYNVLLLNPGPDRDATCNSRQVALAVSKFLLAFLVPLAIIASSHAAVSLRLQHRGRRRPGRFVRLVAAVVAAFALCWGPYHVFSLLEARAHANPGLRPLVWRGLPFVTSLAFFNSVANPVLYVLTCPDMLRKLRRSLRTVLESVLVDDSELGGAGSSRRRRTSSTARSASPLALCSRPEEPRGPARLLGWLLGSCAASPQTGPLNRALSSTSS
Protocol: The ability of a compound to bind to the human DP2 receptor is assessed via a radioligand binding assay using [^3H]PGD2. HEK293 cells stably expressing recombinant human DP2 are resuspended in 10 mM Hepes, 7.4 containing 1 mM DTT, lysed and centrifuged at 75,000×g to pellet the membranes. The membranes are resuspended in 10 mM Hepes, 7.4 containing 1 mM DTF and 10% glycerol to approximately 5 mg protein/ml. Membranes (2-10 […]) are incubated in 96-well plates with 1 nM [^3H]PGD2 and test compound in Assay Buffer (50 mM Hepes, 10 mM MnCl2, 1 mM EDTA, plus or minus 0.2% human serum albumin, pH 7.4) for 60 minutes at room temperature. The reactions are terminated by rapid filtration through Whatman GF/C glass fibre filter plates. The filter plates were pre-soaked in 0.33% polythylenimine for 30 minutes at room temperature then washed in Wash Buffer (50 mM Hepes, 0.5 M NaCl pH 7.4) prior to harvesting. After harvesting, the filter plates are washed 3 times with 1 ml cold Wash Buffer then dried. Scintillant is then added to the plates and the radioactivity retained on the filters is determined on a Packard TopCount (Perkin Elmer). Specific binding is determined as total radioactive binding minus non-specific binding in the presence of 10 μM PGD2. IC50s were determined using GraphPad prism analysis of drug titration curves.

IC50 [1] [nM]	IC50 [2] [nM]	Compound
> 1000	< 300	O=C(O)Cc1cccc(Oc2ccc(Br)cc2CS(=O)(=O)c2ccccc2)c1 [Compound 1-20, [3-(2-Benzenesulfonylmethyl-4-bromo-phenoxy)-phenyl]-acetic acid]
300 to 1000	< 300	O=C(O)Cc1cccc(Oc2ccc(Br)cc2CS(=O)(=O)Cc2ccccc2)c1 [Compound 1-21, [3-(4-Bromo-2-phenylmethanesulfonylmethyl-phenoxy)-phenyl]-acetic acid]
> 1000	< 300	O=C(O)Cc1cccc(Oc2ccc(Br)cc2CS(=O)(=O)CCc2ccccc2)c1 [Compound 1-22, {3-[4-Bromo-2-(2-phenyl-ethanesulfonylmethyl)-phenoxy]-phenyl}-acetic acid]
> 1000	300 to 1000	O=C(O)Cc1cccc(Oc2ccc(Br)cc2CS(=O)(=O)c2ccccn2)c1 [Compound 1-23, {3-[4-Bromo-2-(pyridine-2-sulfonylmethyl)-phenoxy]-phenyl}-acetic acid]
> 1000	> 1000	O=C(O)Cc1cccc(Oc2ccc(Br)cc2CS(=O)(=O)c2ccc3ccccc3n2)c1 [Compound 1-24, {3-[4-Bromo-2-(quinoline-2-sulfonylmethyl)-phenoxy]-phenyl}-acetic acid]
> 1000	300 to 1000	O=C(O)Cc1cccc(Oc2ccc(Br)cc2CS(=O)(=O)c2nccs2)c1 [Compound 1-25, {3-[4-Bromo-2-(thiazole-2-sulfonylmethyl)-phenoxy]-phenyl}-acetic acid]
> 1000	< 300	Cc1nnc(S(=O)(=O)Cc2cc(Br)ccc2Oc2cccc(CC(=O)O)c2)s1 [Compound 1-26, {3-[4-Bromo-2-(5-methyl-[1,3,4]thiadiazole-2-sulfonylmethyl)-phenoxy]-phenyl}-acetic acid]
> 1000	< 300	CN(C)CCS(=O)(=O)Cc1cc(Br)ccc1Oc1cccc(CC(=O)O)c1 [Compound 1-27, {3-[4-Bromo-2-(2-dimethylamino-ethanesulfonylmethyl)-phenoxy]-phenyl}-acetic acid]
> 1000	< 300	O=C(O)Cc1cccc(Oc2ccc(Br)cc2C[S+]([O-])c2ccccc2)c1 (stereo not shown) [Compound 1-28, [3-(2-Benzenesulfinylmethyl-4-bromo-phenoxy)-phenyl]-acetic acid]
> 1000	< 300	O=C(O)Cc1cccc(Oc2ccc(Br)cc2C[S+]([O-])Cc2ccccc2)c1 (stereo not shown) [Compound 1-29, [3-(4-Bromo-2-phenylmethanesulfinylmethyl-phenoxy)-phenyl]-acetic acid]
> 1000	< 300	O=C(O)Cc1cccc(Oc2ccc(Br)cc2C[S+]([O-])CCc2ccccc2)c1 (stereo not shown) [Compound 1-30, {3-[4-Bromo-2-(2-phenyl-ethanesulfinylmethyl)-phenoxy]-phenyl}-acetic acid]
> 1000	> 1000	O=C(O)Cc1cccc(Oc2ccc(Br)cc2C[S+]([O-])c2ccccn2)c1 (stereo not shown) [Compound 1-31, {3-[4-Bromo-2-(pyridine-2-sulfinylmethyl)-phenoxy]-phenyl}-acetic acid]
> 1000	< 300	O=C(O)Cc1cccc(Oc2ccc(Br)cc2C[S+]([O-])c2ccc3ccccc3n2)c1 (stereo not shown) [Compound 1-32, {3-[4-Bromo-2-(quinoline-2-sulfinylmethyl)-phenoxy]-phenyl}-acetic acid]
> 1000	< 300	O=C(O)Cc1cccc(Oc2ccc(Br)cc2C[S+]([O-])c2nccs2)c1 (stereo not shown) [Compound 1-33, {3-[4-Bromo-2-(thiazole-2-sulfinylmethyl)-phenoxy]-phenyl}-acetic acid]
> 1000	< 300	Cc1nnc([S+]([O-])Cc2cc(Br)ccc2Oc2cccc(CC(=O)O)c2)s1 (stereo not shown) [Compound 1-34, {3-[4-Bromo-2-(5-methyl-[1,3,4]thiadiazole-2-sulfinylmethyl)-phenoxy]-phenyl}-acetic acid]
> 1000	> 1000	CN(C)CC[S+]([O-])Cc1cc(Br)ccc1Oc1cccc(CC(=O)O)c1 (stereo not shown) [Compound 1-35, {3-[4-Bromo-2-(2-dimethylamino-ethanesulfinylmethyl)-phenoxy]-phenyl}-acetic acid]
> 1000	> 1000	O=C(O)Cc1cccc(Oc2ccc(Br)cc2C[S+]([O-])CC(=O)O)c1 (stereo not shown) [Compound 1-36, [3-(4-Bromo-2-carboxymethanesulfinylmethyl-phenoxy)-phenyl]-acetic acid]
300 to 1000	> 1000	O=C(O)Cc1cccc(Oc2ccc(Br)cc2COc2ccccc2)c1 [Compound 1-37, [3-(4-Bromo-2-phenoxymethyl-phenoxy)-phenyl]-acetic acid]
300 to 1000	< 300	COc1ccc(CC(=O)O)cc1Oc1ccc(Cl)cc1CSCc1ccccc1 [Compound 1-54, [3-(2-Benzylsulfanylmethyl-4-chloro-phenoxy)-4-methoxy-phenyl]-acetic acid]
> 1000	300 to 1000	COc1ccc(CC(=O)O)cc1Oc1ccc(Cl)cc1C[S+]([O-])Cc1ccccc1 (stereo not shown) [Compound 1-55, [3-(4-Chloro-2-phenylmethanesulfinylmethyl-phenoxy)-4-methoxyphenyl]-acetic acid]
> 1000	< 300	COc1ccc(CC(=O)O)cc1Oc1ccc(Cl)cc1CS(=O)(=O)Cc1ccccc1 [Compound 1-56, [3-(4-Chloro-2-phenylmethanesulfonylmethyl-phenoxy)-4-methoxy-phenyl]-acetic acid]
> 1000	300 to 1000	Cn1cc(-c2ccc(Oc3cccc(CC(=O)O)c3)c(CSc3ccccc3)c2)cn1 [Compound 1-57, {3-[4-(1-Methyl-1H-pyrazol-4-yl)-2-phenylsulfanylmethyl-phenoxy]-phenyl}-acetic acid]
< 300	300 to 1000	CS(=O)(=O)c1ccc(-c2ccc(Oc3cccc(CC(=O)O)c3)c(CSc3ccccc3)c2)cc1 [Compound 1-58, [3-(4′-Methanesulfonyl-3-phenylsulfanylmethyl-biphenyl-4-yloxy)-phenyl]-acetic acid]
